Holding throughout (assay type): cell-based
Test [1] concerns Neisseria meningitidis. In words: Macro broth dilution MIC, Neisseria meningitidis isolates (Test 2). Conditions: Neisseria meningitidis, 24 h, read after 24 hours, read-out: Minimum Inhibitory Concentration. The procedure:
Compounds were tested against five isolates of Neisseria meningitidis. The bacterial isolates were provided by the Department of Bacterial Diseases of the Walter Reed Army Institute of Research. The test procedure used was the macro broth dilution method in duplicate outlined by J. C. Sherris on pages 414-415 (loc. cit.). The test compounds and controls were prepared as in Test 1 above. Ampicillin and penicillin standards were initially diluted as described by J. C. Sherris on pages 411-412 (loc. cit.) followed by dilution with Mueller-Hinton broth. The tubes were incubated at 37° C. under 5-10% carbon dioxide.

Test [2] concerns Group D Enterococcus. Description: Macro broth dilution MIC, Group D Enterococcus isolates (Test 1). Particulars: 24 h, read after 24 hours, read-out: Minimum Inhibitory Concentration. As for the experimental part: (§1) Compounds were tested against five isolates of Staphylococcus aureus and five isolates of Group D Enterococcus. The bacteria used were isolated from patients at the Walter Reed Army Medical Center, Washington, D.C. The test procedure used was the macro broth dilution method in duplicate as outlined by J. C. Sherris on pages 414-415 in "Manual of Clinical Microbiology," 2nd ed., E. Lennette, E. H. Spaulding, and J. P. Truant, Ed. (American Society for Microbiology, Washington, D.C., 1974). Each compound was dissolved in DMSO (12.8 mg/mL) and then diluted with Mueller-Hinton broth to obtain the desired dilutions. Tubes containing the highest quantities of DMSO with no compound present were run as controls.

Test [3] relates to Staphylococcus aureus. Description: Macro broth dilution MIC, Staphylococcus aureus isolates (Test 1). Particulars: 24 h, read after 24 hours, read-out: Minimum Inhibitory Concentration. As for the experimental part: as §1
The test system of test [4] is Mycobacterium intracellulare. In words: Broth dilution MIC, Mycobacterium intracellulare strains (Test 6). Conditions: read-out: Minimum Inhibitory Concentration.
Test [5] relates to Mycobacterium smegmatis. Description: MIC against Mycobacterium smegmatis strains (Test 4). Particulars: Mycolicibacterium smegmatis, read-out: Minimum Inhibitory Concentration. The procedure: Compounds were tested against four strains of Mycobacterium smegmatis. The test procedure used was as mentioned by N. E. Morrison [Int. J. of Leprosy 39:34-43 (1971)]. The strain numbers refer to Mycobacterium smegmatis ATCC 607, a DDS-resistant daughter strain, a Rifampin-resistant daughter strain, and a Clofazimine-resistant daughter strain, respectively.

The subject of test [6] is Neisseria gonorrhoeae. Description: Agar dilution MIC, Neisseria gonorrhoeae isolates (Test 3). Particulars: 24 h, read-out: Minimum Inhibitory Concentration. The procedure:
Compounds were tested against six Neisseria gonorrhoeae isolates. The bacteria used were provided by the Department of Bacterial Diseases of the Walter Reed Army Institute of Research. The test procedure used was the agar dilution method in duplicate as outlined by J. C. Sherris on pages 411-412 (loc. cit.). GC Medium (Difco) with a 2% defined supplement added as described by D. S. Kellogg et al. [J. Bact. 85:1274-1279 (1963)] was used as the media. The compounds were dissolved in DMSO (1.0 mg/mL), diluted with GC broth (GC Medium without agar) to the appropriate concentration, and added to the GC Medium at 55°-56° C. The latter was then poured and allowed to solidify. A penicillin standard was also prepared with initial dilutions as described by J. C. Sherris followed by dilutions with GC broth and addition to the GC Medium at 55°-56° C. as above. The inoculum was 1:200 GC broth dilution of a suspension of colony isolates after the suspension was adjusted visually to the turbidity standard described by J. M. Matsen and A. L. Barr on page 422 in "Manual of Clinical Microbiology," 2nd ed., E. Lennette, E. H. Spaulding, and J. P. Truant, Ed. (American Society for Microbiology, Washington, D.C., 1974). The plates were inoculated with a replicator and incubated at 37° C. under 5-10% carbon dioxide.

Setting [7] is: Neisseria meningitidis isolate 7957.
Setting [8] is: Neisseria meningitidis isolate 7990.
The mark [9] stands for this setting: Neisseria meningitidis isolate 8005.
[10] abbreviates: Neisseria meningitidis isolate 8006.
[11] abbreviates: Neisseria meningitidis isolate 8011.
Where [12] appears, read: Group D Enterococcus isolate II.
Setting [13] is: Group D Enterococcus isolate III.
Setting [14] is: Group D Enterococcus isolate IV.
The mark [15] stands for this setting: Staphylococcus aureus isolate I.
Setting [16] is: Staphylococcus aureus isolate III.
[17] abbreviates: Staphylococcus aureus isolate IV.
The mark [18] stands for this setting: Staphylococcus aureus isolate V.
The mark [19] stands for this setting: Mycobacterium intracellulare strain I.
Setting [20] is: Mycobacterium intracellulare strain II.
Setting [21] is: Mycobacterium intracellulare strain III.
The mark [22] stands for this setting: Mycobacterium intracellulare strain IV.
Setting [23] is: Mycobacterium intracellulare strain V.
[24] abbreviates: Mycobacterium intracellulare strain VI.
Where [25] appears, read: Staphylococcus aureus isolate II.
Where [26] appears, read: ATCC607, Mycobacterium smegmatis strain I (ATCC 607).
[27] abbreviates: Mycobacterium smegmatis strain II (DDS-resistant daughter strain).
Where [28] appears, read: Mycobacterium smegmatis strain III (Rifampin-resistant daughter strain).
[29] abbreviates: Mycobacterium smegmatis strain IV (Clofazimine-resistant daughter strain).
Where [30] appears, read: Neisseria gonorrhoeae isolate 135, read after 24 hours.
[31] abbreviates: Neisseria gonorrhoeae isolate 161, read after 24 hours.
Setting [32] is: Neisseria gonorrhoeae isolate 278, read after 24 hours.
The mark [33] stands for this setting: Neisseria gonorrhoeae isolate 455, read after 24 hours.
Setting [34] is: Neisseria gonorrhoeae isolate 456, read after 24 hours.
[35] abbreviates: Neisseria gonorrhoeae isolate 602, read after 24 hours.

Values after ≈ are worked out from the molar mass of the structure shown. Where two headings read alike, the source gives them in different places.

As for `CC(=NNC(=S)N(CC(C)C)CC(C)C)c1ccccn1` [O, 2-Acetylpyridine 4,4-diisobutyl-3-thiosemicarbazone], the MIC turned out to be 0.062 µg/mL (≈ 0.202 µM) in test [1] (setting [7]); 0.125 µg/mL (≈ 0.408 µM) in test [1] (setting [8]); 0.5 µg/mL (≈ 1.63 µM) in test [1] (setting [9]); 0.062 µg/mL (≈ 0.202 µM) in test [1] (setting [10]); 0.5 µg/mL (≈ 1.63 µM) in test [1] (setting [11]); 2 µg/mL (≈ 6.53 µM) in test [2] (Group D Enterococcus isolate I). Also, the MIC in test [2] (setting [12]) stood at 2 µg/mL (≈ 6.53 µM); in test [2] (setting [13]) it was 2 µg/mL (≈ 6.53 µM); in test [2] (setting [14]), 4 µg/mL (≈ 13.1 µM); in test [2] (Group D Enterococcus isolate V) it was 2 µg/mL (≈ 6.53 µM); in test [3] (setting [15]) it was 0.5 µg/mL (≈ 1.63 µM); in test [3] (setting [16]) it was 1 µg/mL (≈ 3.26 µM). The MIC in test [3] (setting [17]) and in test [3] (setting [18]) was 0.5 µg/mL (≈ 1.63 µM) throughout.

Regarding `CC(=NNC(=S)NC12CC3CC(CC(C3)C1)C2)c1ccccn1` [S, 2-Acetylpyridine 4-(1-adamantyl)-3-thiosemicarbazone], the MIC is 10 µg/mL (≈ 30.4 µM) in test [4] (setting [19]); 1 µg/mL (≈ 3.04 µM) in test [4] (setting [20]); 1 µg/mL (≈ 3.04 µM) in test [4] (setting [21]); 10 µg/mL (≈ 30.4 µM) in test [4] (setting [22]); 10 µg/mL (≈ 30.4 µM) in test [4] (setting [23]); 10 µg/mL (≈ 30.4 µM) in test [4] (setting [24]). Also, the MIC was 2 µg/mL (≈ 6.09 µM) in test [2] (Group D Enterococcus isolate I); 1 µg/mL (≈ 3.04 µM) in test [2] (setting [12]); 2 µg/mL (≈ 6.09 µM) in test [2] (setting [13]); 2 µg/mL (≈ 6.09 µM) in test [2] (setting [14]); 2 µg/mL (≈ 6.09 µM) in test [2] (Group D Enterococcus isolate V); 2 µg/mL (≈ 6.09 µM) in test [3] (setting [15]). The MIC was 2 µg/mL (≈ 6.09 µM) in test [3] (setting [25]), 4 µg/mL (≈ 12.2 µM) in test [3] (setting [16]), 2 µg/mL (≈ 6.09 µM) in test [3] (setting [17]) and 1 µg/mL (≈ 3.04 µM) in test [3] (setting [18]).

With `CC(=NNC(=S)N(C)C)c1ccccn1` [R, 2-Acetylpyridine 4,4-dimethyl-3-thiosemicarbazone], the MIC in test [1] (setting [7]) is 0.062 µg/mL (≈ 0.279 µM); in test [1] (setting [8]), 0.125 µg/mL (≈ 0.562 µM); in test [1] (setting [9]) it was 0.062 µg/mL (≈ 0.279 µM); in test [1] (setting [10]), 0.062 µg/mL (≈ 0.279 µM); in test [1] (setting [11]), 0.125 µg/mL (≈ 0.562 µM); in test [5] (setting [26]), 2 µg/mL (≈ 9 µM). The MIC turned out to be 3 µg/mL (≈ 13.5 µM) in test [5] (setting [27]); 2 µg/mL (≈ 9 µM) in test [5] (setting [28]); 2 µg/mL (≈ 9 µM) in test [5] (setting [29]); 0.004 µg/mL (≈ 0.018 µM) in test [6] (setting [30]); 0.004 µg/mL (≈ 0.018 µM) in test [6] (setting [31]); 0.008 µg/mL (≈ 0.036 µM) in test [6] (setting [32]). The MIC in test [6] (setting [33]), in test [6] (setting [34]) and in test [6] (setting [35]) was 0.008 µg/mL (≈ 0.036 µM) in each case.

Take `CC(=NNC(=S)NCc1ccccc1C)c1ccccn1` [N, 2-Acetylpyridine 4-(2-methylbenzyl)-3-thiosemicarbazone]: the MIC was 2 µg/mL (≈ 6.7 µM) in test [3] (setting [15]); 2 µg/mL (≈ 6.7 µM) in test [3] (setting [25]); 2 µg/mL (≈ 6.7 µM) in test [3] (setting [16]); 2 µg/mL (≈ 6.7 µM) in test [3] (setting [17]); 1 µg/mL (≈ 3.35 µM) in test [3] (setting [18]).

As to `CC(=NNC(=S)N1CCCCCCCCCCCC1)c1ccccn1` [Z, 1-Azacyclotridecane-1-thiocarboxylic acid 2-[1-(2-pyridyl)ethylidene]hydrazide], the MIC in test [4] (setting [19]) turned out to be 10 µg/mL (≈ 27.7 µM); in test [4] (setting [20]) it was 1 µg/mL (≈ 2.77 µM); in test [4] (setting [21]), 1 µg/mL (≈ 2.77 µM); in test [4] (setting [22]), 10 µg/mL (≈ 27.7 µM); in test [4] (setting [23]) it was 10 µg/mL (≈ 27.7 µM); in test [4] (setting [24]) it was 10 µg/mL (≈ 27.7 µM).

For the molecule `CC(=NNC(=S)N1CCCC1)c1ccccn1` [HH, 1-Azacyclopentane-1-thiocarboxylic acid 2-[1-(2-pyridyl)ethylidene]hydrazide], the MIC was determined as 2 µg/mL (≈ 8.05 µM) in test [5] (setting [26]); 3 µg/mL (≈ 12.1 µM) in test [5] (setting [27]); 2 µg/mL (≈ 8.05 µM) in test [5] (setting [28]); 4 µg/mL (≈ 16.1 µM) in test [5] (setting [29]); 0.008 µg/mL (≈ 0.0322 µM) in test [6] (setting [30]); 0.004 µg/mL (≈ 0.0161 µM) in test [6] (setting [31]). The MIC in test [6] (setting [32]), in test [6] (setting [33]), in test [6] (setting [34]) and in test [6] (setting [35]) was 0.008 µg/mL (≈ 0.0322 µM) throughout.

As to `CC(=NNC(=S)NC(C)(C)CC(C)(C)C)c1ccccn1` [G, 2-Acetylpyridine 4-(1,1,3,3-tetramethylbutyl)-3-thiosemicarbazone], the MIC in test [2] (Group D Enterococcus isolate I) stood at 8 µg/mL (≈ 26.1 µM); in test [2] (setting [12]), 4 µg/mL (≈ 13.1 µM); in test [2] (setting [13]), 4 µg/mL (≈ 13.1 µM); in test [2] (setting [14]) it was 4 µg/mL (≈ 13.1 µM); in test [2] (Group D Enterococcus isolate V), 4 µg/mL (≈ 13.1 µM).
